Results: US12441733B2, “Substituted 2,4-dioxotetrahydropyrimidines as intermediates in the synthesis of bruton's tyrosine kinase inhibitors” (Novartis AG, priority 2018, dated 2025)

Test system: TMD8 cells
Assay: Resazurin cell viability (proliferation) assay in TMD8 DLBCL cells
Assay type: cell-based
Details: Homo sapiens, TMD8 cells (BTK dependent), 72 h, 50% growth inhibition vs vehicle, read-out: TMD8 Prol GI50
In short: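 TMD8 cells were seeded at 1×10^4 per well and treated 3 h later with compound, in an 8-point 1:4 dilution series starting at 1 μM, or DMSO, for 72 h at 37° C. Resazurin was added at 13 μg/ml final for the last 2 h, and fluorescence was read at ex 530/em 600 nm. GI50 versus vehicle was derived by curve fitting from triplicates.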

Compound | GI50 [nM]
COc1ccc(C(=O)N2CCC3(CC2)CCN(C(C)(C)Cc2ccc(-c4cc5c(-c6cc(F)cc(NC(=O)c7ccc(C(C)(C)O)cc7F)c6C)ncnc5[nH]4)cc2)CC3)cc1N1CCC(=O)NC1=O [Compound 20, N-(3-(6-(4-(2-(9-(3-(2,4-Dioxotetrahydropyrimidin-1(2H)-yl)-4-methoxybenzoyl)-3,9-diazaspiro[5.5]undecan-3-yl)-2-methylpropyl)phenyl)-7H-pyrrolo[2,3-d]pyrimidin-4-yl)-5-fluoro-2-methylphenyl)-2-fluoro-4-(2-hydroxypropan-2-yl)benzamide] | 0.53
COc1ccc(C(=O)N2CCC3(CCN(CCc4ccc(-c5cc6c(-c7cc(F)cc(NC(=O)c8ccc(C(C)(C)O)cc8F)c7C)ncnc6[nH]5)cc4)CC3)CC2)cc1N1CCC(=O)NC1=O [Compound 31, N-(3-(6-(4-(2-(9-(3-(2,4-Dioxotetrahydropyrimidin-1(2H)-yl)-4-methoxybenzoyl)-3,9-diazaspiro[5.5]undecan-3-yl)ethyl)phenyl)-7H-pyrrolo[2,3-d]pyrimidin-4-yl)-5-fluoro-2-methylphenyl)-2-fluoro-4-(2-hydroxypropan-2-yl)benzamide] | 0.46
